According to PubChem BioAssay (NCI):
Several values for one entry are separate records, joined by “and”; a condition that tells them apart may be missing. Identical values can stand only once.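 Five compound concentrations were applied to cells in 96-well plates for 48 hours; endpoints were derived by simple linear interpolation of the resulting dose-response curve. Abbreviation: GI50, concentration required for 50% inhibition of growth. The concentration for full growth arrest is given as TGI.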

Key:
Assay in all cases: inhibition of tumour cell growth, NCI panel, 48 h
786-0 renal = test system: 786-0 renal
A549 NSCLC = test system: A549 NSCLC
COLO 205 colon = test system: COLO 205 colon
HCC-2998 colon = test system: HCC-2998 colon
K-562 leukemia = test system: K-562 leukemia
OVCAR-3 ovarian = test system: OVCAR-3 ovarian
PC-3 prostate = test system: PC-3 prostate
SF-268 CNS = test system: SF-268 CNS
SK-MEL-2 melanoma = test system: SK-MEL-2 melanoma
UACC-62 melanoma = test system: UACC-62 melanoma

## Cc1ccc(-n2c3c(c4c(CN(C)C)c(O)ccc42)CCc2ccccc2C3=O)cc1
786-0 renal
  GI50: 16900 nM
  TGI: 33300 nM
A549 NSCLC
  GI50: 16700 nM
  TGI: 33800 nM
COLO 205 colon
  GI50: > 100000 nM
  TGI: > 100000 nM
HCC-2998 colon
  GI50: 12200 nM
  TGI: 24900 nM
K-562 leukemia
  GI50: 10200 nM
  TGI: 25900 nM
OVCAR-3 ovarian
  GI50: 21400 nM
  TGI: 44500 nM
PC-3 prostate
  GI50: 17500 nM
  TGI: 38400 nM
SF-268 CNS
  GI50: 19800 nM
  TGI: 50500 nM
SK-MEL-2 melanoma
  GI50: 19900 nM
  TGI: 44500 nM
UACC-62 melanoma
  GI50: 17000 nM
  TGI: 30900 nM

## CC[C@H](Nc1nc(NCc2cnc(C)cc2C)c2ncn(C(C)C)c2n1)[C@@H](C)O
786-0 renal
  GI50: 361 nM
  TGI: > 100000 nM
A549 NSCLC
  GI50: 353 nM
  TGI: > 100000 nM
COLO 205 colon
  GI50: 247 nM
  TGI: 640 nM
HCC-2998 colon
  GI50: 291 nM
  TGI: 2000 nM
K-562 leukemia
  GI50: 480 nM
  TGI: > 100000 nM
OVCAR-3 ovarian
  GI50: 355 nM
  TGI: > 24100 nM
PC-3 prostate
  GI50: 314 nM
  TGI: > 100000 nM
SF-268 CNS
  GI50: 268 nM
  TGI: 2410 nM
SK-MEL-2 melanoma
  GI50: 549 nM
  TGI: 3010 nM
UACC-62 melanoma
  GI50: 304 nM
  TGI: 1880 nM

## C#CCC(Cc1cnc2nc(N)nc(N)c2n1)c1ccc(C(=O)N[C@@H](CCC(=O)O)C(=O)O)cc1 (stereo partly specified)
786-0 renal
  GI50: < 10 nM
  TGI: > 100000 nM
A549 NSCLC
  GI50: < 10 nM
  TGI: > 100000 nM
COLO 205 colon
  GI50: < 15.9 nM
  TGI: > 100000 nM
HCC-2998 colon
  GI50: 10.3 nM
  TGI: > 100000 nM
K-562 leukemia
  GI50: < 10 nM
  TGI: > 100000 nM
OVCAR-3 ovarian
  GI50: < 13.5 nM
  TGI: > 100000 nM
PC-3 prostate
  GI50: < 10 nM
  TGI: > 100000 nM
SF-268 CNS
  GI50: < 10 nM
  TGI: > 100000 nM
SK-MEL-2 melanoma
  GI50: > 100000 nM
  TGI: > 100000 nM
UACC-62 melanoma
  GI50: < 10 nM
  TGI: > 100000 nM

## CC(C)(O)CS(=O)(=O)Nc1ccc2c(c1)CCN(C(=O)COc1cccnc1)C2
786-0 renal
  GI50: > 100000 nM
  TGI: > 100000 nM
A549 NSCLC
  GI50: > 100000 nM
  TGI: > 100000 nM
COLO 205 colon
  GI50: 141 nM
  TGI: > 100000 nM
HCC-2998 colon
  GI50: > 26500 nM
  TGI: > 100000 nM
K-562 leukemia
  GI50: 65.2 nM
  TGI: > 100000 nM
OVCAR-3 ovarian
  GI50: > 100000 nM
  TGI: > 100000 nM
PC-3 prostate
  GI50: 1060 nM
  TGI: > 100000 nM
SF-268 CNS
  GI50: > 100000 nM
  TGI: > 100000 nM
SK-MEL-2 melanoma
  GI50: > 100000 nM
  TGI: > 100000 nM
UACC-62 melanoma
  GI50: > 100000 nM
  TGI: > 100000 nM

## CCOC(=O)c1[nH]c(Br)c(-c2ccc(Br)cc2)c1Br
786-0 renal
  GI50: 535 nM
  TGI: 1920 nM and 2720 nM
A549 NSCLC
  GI50: 8150 nM
  TGI: 29800 nM
COLO 205 colon
  TGI: 2540 nM and 1850 nM
HCC-2998 colon
  GI50: 11600 nM
  TGI: > 100000 nM
K-562 leukemia
  GI50: 193 nM
  TGI: 1120 nM
OVCAR-3 ovarian
  GI50: 370 nM
  TGI: 759 nM and 1610 nM
PC-3 prostate
  GI50: 1250 nM
  TGI: 15500 nM
SF-268 CNS
  GI50: 836 nM
  TGI: 34800 nM
SK-MEL-2 melanoma
  TGI: 2530 nM
UACC-62 melanoma
  GI50: 362 nM

## O=C1/C(=C/c2ccccc2)CN(C(=O)c2cccnc2)C/C1=C\c1ccccc1
786-0 renal
  GI50: 2070 nM
  TGI: 4570 nM
A549 NSCLC
  GI50: 3100 nM
  TGI: 12200 nM
COLO 205 colon
  GI50: 1550 nM
  TGI: 3670 nM
HCC-2998 colon
  GI50: 939 nM
  TGI: 2270 nM
K-562 leukemia
  GI50: 347 nM
  TGI: > 100000 nM
OVCAR-3 ovarian
  GI50: 505 nM
  TGI: 1710 nM
PC-3 prostate
  GI50: 1440 nM
  TGI: 4810 nM
SF-268 CNS
  GI50: 2780 nM
  TGI: 13700 nM
SK-MEL-2 melanoma
  GI50: 6720 nM
  TGI: 20600 nM
UACC-62 melanoma
  GI50: 2320 nM
  TGI: 5500 nM

## COc1cc(-c2nn(-c3cccc(NC(=O)Nc4cc(C(F)(F)F)cc(C(F)(F)F)c4)c3)cc2-c2ccncc2)ccc1Cl
786-0 renal
  GI50: 892 nM
  TGI: 1820 nM
A549 NSCLC
  GI50: 438 nM
  TGI: 2800 nM
COLO 205 colon
  GI50: 817 nM
  TGI: 1600 nM
HCC-2998 colon
  GI50: 1090 nM
  TGI: 2650 nM
K-562 leukemia
  GI50: 279 nM
  TGI: 3030 nM
OVCAR-3 ovarian
  GI50: 293 nM
  TGI: 1070 nM
PC-3 prostate
  GI50: 176 nM
  TGI: 1180 nM
SF-268 CNS
  GI50: 896 nM
  TGI: 2300 nM
SK-MEL-2 melanoma
  GI50: 1010 nM
  TGI: 2040 nM
UACC-62 melanoma
  GI50: 496 nM
  TGI: 1500 nM

## Cc1cc2nc3c4cc(N)ccc4n(CCN(C)C)c3nc2cc1C
786-0 renal
  GI50: 1110 nM
  TGI: 12600 nM
A549 NSCLC
  GI50: 450 nM
  TGI: 6140 nM
COLO 205 colon
  GI50: 408 nM
  TGI: 5270 nM
HCC-2998 colon
  GI50: 876 nM
  TGI: 3850 nM
K-562 leukemia
  GI50: 421 nM
  TGI: 8980 nM
OVCAR-3 ovarian
  GI50: 1390 nM
  TGI: 6870 nM
PC-3 prostate
  GI50: 935 nM
  TGI: 8670 nM
SF-268 CNS
  GI50: 1430 nM
  TGI: 6890 nM
SK-MEL-2 melanoma
  GI50: 1340 nM
  TGI: 3890 nM
UACC-62 melanoma
  GI50: 824 nM
  TGI: 2750 nM

## C=C1C(=O)O[C@H]2[C@H]1CC/C(Cn1cc(-c3cc(C(F)(F)F)cc(C(F)(F)F)c3)nn1)=C\CC[C@@]1(C)O[C@@H]21
786-0 renal
  GI50: 163 nM
  TGI: 311 nM
A549 NSCLC
  GI50: 1360 nM
  TGI: 3010 nM
COLO 205 colon
  GI50: 141 nM
  TGI: 364 nM
HCC-2998 colon
  GI50: 1170 nM
  TGI: 2510 nM
K-562 leukemia
  GI50: 238 nM
  TGI: 601 nM
OVCAR-3 ovarian
  GI50: 152 nM
  TGI: 358 nM
PC-3 prostate
  GI50: 832 nM
  TGI: 2330 nM
SF-268 CNS
  GI50: 1080 nM
  TGI: 2490 nM
SK-MEL-2 melanoma
  GI50: 348 nM
  TGI: 1490 nM
UACC-62 melanoma
  GI50: 344 nM
  TGI: 1380 nM

## COc1c(OC)c(OC)c2c(c1OC)c(=O)c1ccccc1n2C
786-0 renal
  TGI: > 100000 nM
A549 NSCLC
  TGI: > 100000 nM
COLO 205 colon
  TGI: > 100000 nM
HCC-2998 colon
  TGI: > 100000 nM
K-562 leukemia
  TGI: > 100000 nM
OVCAR-3 ovarian
  TGI: > 100000 nM
PC-3 prostate
  TGI: > 100000 nM
SF-268 CNS
  TGI: > 100000 nM
SK-MEL-2 melanoma
  TGI: > 100000 nM
UACC-62 melanoma
  TGI: > 100000 nM

## COc1cc2c3c(n(CCCN)c(=O)c2cc1OC)-c1cc2c(cc1/C3=C\CCN)OCO2
786-0 renal
  GI50: 2050 nM
  TGI: 9340 nM
A549 NSCLC
  GI50: 3190 nM
  TGI: > 30300 nM
COLO 205 colon
  GI50: 4340 nM
  TGI: 33500 nM
HCC-2998 colon
  GI50: 382 nM
  TGI: 1770 nM
K-562 leukemia
  GI50: 2170 nM
  TGI: > 40400 nM
OVCAR-3 ovarian
  TGI: > 23500 nM
PC-3 prostate
  GI50: 4430 nM
  TGI: 17800 nM
SF-268 CNS
  GI50: 993 nM
  TGI: 6890 nM
SK-MEL-2 melanoma
  GI50: 6570 nM
  TGI: 14600 nM
UACC-62 melanoma
  GI50: 1750 nM
  TGI: 4980 nM

## CC1(C)N=C(N)N=C(N)N1c1ccc(OCCCCOc2ccc(S(=O)(=O)F)cc2)c(Cl)c1
786-0 renal
  GI50: 355 nM
  TGI: 18900 nM
A549 NSCLC
  GI50: 82.6 nM
  TGI: 14800 nM
COLO 205 colon
  GI50: 137 nM
  TGI: 15500 nM
HCC-2998 colon
  GI50: 485 nM
  TGI: 18200 nM
K-562 leukemia
  GI50: 59.7 nM
  TGI: 15800 nM
OVCAR-3 ovarian
  GI50: 655 nM
  TGI: 16600 nM
PC-3 prostate
  GI50: 64 nM
  TGI: 11000 nM
SF-268 CNS
  GI50: 76 nM
  TGI: 16400 nM
SK-MEL-2 melanoma
  GI50: 2890 nM
  TGI: 22100 nM
UACC-62 melanoma
  GI50: 53.4 nM
  TGI: 18000 nM
